Experimental data as given in the NIST ThermoML archive (doi:10.1016/j.jct.2017.03.006).

Assay: xn = mol fraction of the nth substance listed
Settings: 273.15 K, Liquid, Vibrating tube method

Cc1ccc(C)c(C)c1 [1,2,4-trimethylbenzene] + CCC(C)O
mass density [kg/m3]
Settings	x2 = 0	x2 = 0.1	x2 = 0.1989	x2 = 0.3011	x2 = 0.4002	x2 = 0.5001	x2 = 0.5997	x2 = 0.6999	x2 = 0.7999	x2 = 0.9
100 kPa	891.7	885.9	880.3	874.4	868.5	862.2	855.4	847.7	840.4	831.5
1000 kPa	892.3	886.3	880.7	874.7	868.8	862.5	855.9	848.6	840.9	832.2
2000 kPa	892.9	886.9	881.3	875.4	869.5	863.2	856.6	849.3	841.5	832.9
5000 kPa	894.6	888.8	883.2	877.3	871.4	865.2	858.5	851.3	843.5	835
10000 kPa	897.4	891.8	886.2	880.4	874.5	868.3	861.7	854.5	846.8	838.2
15000 kPa	900.2	894.6	889.1	883.3	877.4	871.3	864.7	857.6	849.9	841.4
20000 kPa	902.8	897.4	891.9	886.1	880.4	874.2	867.6	860.5	852.8	844.4
30000 kPa	908	902.7	897.3	891.6	885.8	879.7	873.3	866.2	858.6	850.1
40000 kPa	912.9	907.8	902.4	896.7	891.1	885	878.5	871.5	863.9	855.6
50000 kPa	917.5	912.6	907.2	901.6	896	890	883.6	876.6	869	860.7
60000 kPa	921.9	–	–	–	–	–	–	–	–	–
